Test results as given in patent EP0416604A2, “PAF-antagonists for the preparation of a medicament, useful for the treatment of heart diseases, caused by diminished beta-receptor-stimulation” (Dr. Karl Thomae GmbH, priority 1989, dated 1991).

Key:
Maus = details: p.o., acute toxicity; cited from earlier work
cardialen β-Rezeptoren = assay: LV-dP/dtmax (cardiac contractility) response to isoprenaline in anaesthetised, despinalised rats before and after PAF infusion; format: in vivo, Ratten; parameters: Steigerung von LV-dP/dtmax durch Isoprenalin (Ansprechbarkeit der cardialen β-Rezeptoren): dose or concentration left out as unconfirmed; details: for Steigerung LV-dP/dtmax: despinalised rats, n=6, control before PAF
Experimental: Die neu aufgefundene Wirkung der PAF-Antagonisten wurde beispielsweise an B = 4-(2-Chlorphenyl)-9-methyl-2-[3-(4-morpholinyl)-3-propanon-1-yl]-6H-thieno[3.2-f][1.2.4]triazolo[4.3-a][1.4]-diazepin wie folgt geprüft: Männliche Ratten (Chbb:THOM, ca. 300 g) werden mit Hexobarbital-Natrium (150 mg/kg i.p.) narkotisiert. Die Trachea wird kannuliert und danach werden die Tiere despinalisiert. Die Tiere werden künstlich beatmet und mittels einem Heizkissen auf 37°C gehalten. Zur Messung des linksventrikulärem Drucks wird über die Arteria Carotis in den linken Ventrikel ein Millar Tipmanometer geschoben. Dieses Signal wird elektronisch differentiert und ist als LV-dP/dtmax ein Maß für die Kontraktionskraft des Herzes. Über einen Katheter in der anderen Arteria Carotis wird der arterielle Blutdruck gemessen. Die zu untersuchenden Substanzen werden intravenös über eine Kanüle in der Vena jugularis injiziert.
Isoprenalin (3-100 ng/kg) steigert dosisabhänig LV-dP/dtmax von 300 ± 90 bis 4450 ± 290 mm Hg/s (n=6). Nach einer 45-minütigen Infusion von PAF (50-100 ng/kg/min.) wurde wieder Isoprenalin (3 bis 100 ng/kg) injiziert. […] Dann wurde die Substanz B (10 mg/kg i.v.) verabreicht und nach 10 Minuten wurde wieder Isoprenalin injiziert.

Structure (SMILES): CCCN(CCC)C(=O)C1Cc2sc3c(c2C1)C(c1ccccc1Cl)=NCc1nnc(C)n1-3 (stereo not drawn) [Substanz C]
- LD₅₀ (Maus): 1700 mg/kg

Structure (SMILES): Cc1nnc2n1-c1sc3c(c1C(c1ccccc1Cl)=NC2)CC(C(=O)N1CCOCC1)C3 (single isomer, unassigned; (-)) [Substanz A, (-)-6-(2-Chlorphenyl)-8,9-dihydro-1-methyl-8-[(4-morpholinyl)carbonyl]-4H,7H-cyclopenta[4.5]thieno[3,2-f][1.2.4]triazolo[4.3-a][1.4]diazepin]
- LD₅₀ (Maus): 1960 mg/kg

Structure (SMILES): CCCCCCCCCCCCCCCCOCC(COP(=O)([O-])OCC[N+](C)(C)C)OC(C)=O (stereo not drawn) [PAF]
- Effekte von 3 und 10 ng/kg Isoprenalin (LV-dP/dtmax) (cardialen β-Rezeptoren; after 45 min infusion of PAF 50-100 ng/kg/min, rats): nicht beeinflußt
- positiv inotrope Wirkung von dem Histamin-2 Agonist Dimaprit (cardialen β-Rezeptoren; effect of PAF on Dimaprit 1-10 mg/kg): absolut nicht beeinflußt
- positiv inotrope Wirkung von dem Adenylcyclase Aktivator Forskolin (cardialen β-Rezeptoren; effect of PAF on Forskolin 3-20 µg/kg): absolut nicht beeinflußt

Structure (SMILES): CC(C)NCC(O)c1ccc(O)c(O)c1 (stereo not drawn) [Isoprenalin]
- Steigerung LV-dP/dtmax (cardialen β-Rezeptoren; Isoprenalin 3 ng/kg i.v. (lower end of dose range 3-100 ng/kg)): 300 ± 90 mm Hg/s
- Steigerung LV-dP/dtmax (cardialen β-Rezeptoren; Isoprenalin 100 ng/kg i.v. (upper end of dose range 3-100 ng/kg)): 4450 ± 290 mm Hg/s

Structure (SMILES): Cc1nnc2n1-c1sc(CCC(=O)N3CCOCC3)cc1C(c1ccccc1Cl)=NC2 [Substanz B, 4-(2-Chlorphenyl)-9-methyl-2-[3-(4-morpholinyl)-3-propanon-1-yl]-6H-thieno[3.2-f][1.2.4]triazolo[4.3-a][1.4]diazepin]
- Steigerung von LV-dP/dtmax durch Isoprenalin (Ansprechbarkeit der cardialen β-Rezeptoren) (cardialen β-Rezeptoren; isoprenaline injected again after 10 min, responsiveness fully restored, rats): nicht signifikant unterschiedlich von den Kontrollwerten
- LD₅₀ (Maus): 4600 mg/kg
